Measured values from publication PMC8480901 (PLoS ONE, 2021).
Values joined by “and” are separate entries in the source; they are usually repeats but may differ in a detail not shown here. Equal entries are not always repeated. Where two headings read alike, the source gives them in different places.

Experiments:
[1] = Pharmacokinetics in plasma and epithelial lining fluid of mice after a single SC dose; assay type: in vivo, BALB/c mice; settings: for AUC0-24h/Dose, mean / Kp / Tmax / AUC(0-t) / Cmax / distribution from plasma to ELF (penetration into the lung compartment): mice; for AUC0-24h/Dose, mean / Kp / Tmax / AUC(0-t) / Cmax: single 35 mg/kg SC; for Kp / Tmax / AUC(0-t) / Cmax: female, BALB/c, mouse; for Kp: epithelial lining fluid (ELF) / plasma, read-out: AUC ratio for ELF to plasma; for AUC(0-t): read-out: AUC0-24h, mean±SEM; for Cmax: read-out: Cmax, mean±SEM; for distribution from plasma to ELF (penetration into the lung compartment): single SC dose 35 mg/kg
Description: Pharmacokinetic parameters were evaluated as previously described. […] Plasma samples were analyzed by liquid chromatography with […] mass spectrometry (Q Exactive Plus; Thermo Fisher Scientific).
Area under the curve (AUC) values were determined using the linear trapezoidal method.

[2] = test system: IL-8–activated human neutrophils; assay: Chemotaxis of IL-8–activated human neutrophils (transwell, CellTiter Glo); assay type: cell-based; settings: for IL-8–induced chemotaxis of human neutrophils: 0.03 to 30 μM; for Neutrophilic chemotaxis, RLU, Mean / Neutrophilic chemotaxis: % reduction / Neutrophilic chemotaxis, RLU, single replicates: IL-8
Text: Buffy coat (blood sample fraction comprising white blood cells and platelets) from whole blood was obtained from a healthy adult volunteer at the Croatian Institute of Transfusion Medicine (CITM; Zagreb, Croatia). The CITM ethics committee approved the blood collection process, and the volunteer provided written informed consent prior to blood collection. Neutrophils were isolated from the buffy coat, an aliquot of which was used for cell counting via hematologic analyzer (X500i; Sysmex). […] The diluted buffy coat was drawn into sterile 50-mL syringes and incubated for 30 minutes at RT. Following incubation, the upper layer of leukocyte-rich plasma (35 mL) was decanted into a new sterile 50-mL conical centrifuge tube, carefully layered onto 15 mL of Lymphoprep (Axis-Shield Diagnostics, Ltd., Dundee, UK) and centrifuged at 400×g (brake turned off) for 35 minutes at RT. The supernatant and mononuclear ring were discarded, and the pellet was resuspended in 10 mL of cold sterile MilliQ water. […] Resuspended neutrophils were counted via Sysmex X500i hematologic analyzer.
All test compounds were reconstituted in DMSO (Sigma-Aldrich Chemie GmbH) to 100-mM stock concentrations, taking into consideration and correcting for salt and purity. A 30-mM stock solution of reference compound Sch527123 (MedChemExpress, Monmouth Junction, NJ, USA) was diluted to 10 mM with DMSO.
DMSO was used as vehicle. […] The reference compound was tested at concentrations of 0.003, 0.01, 0.03, 0.1, 0.3, 1, 3, and 10 μM. All compounds were tested in triplicate, and the final DMSO concentration was 0.1% per well.
Test and reference compound working solutions were then added (20 μL/well) for a 10-fold dilution to final testing concentrations. Compounds and cells were mixed by gentle pipetting, and the plate was pre-incubated for 30 minutes at RT with gentle mixing by pipetting.
Negative control wells received 180 μL of migration medium alone. To all wells, 20 μL of compound working solutions or DMSO vehicle was added. Once pre-incubation of cells with compounds was complete, the transwell inserts were carefully placed on the receiver plate, with caution to avoid air bubble formation, which could prevent cell migration. To the upper wells, 75 μL of cell suspension (375,000 cells/well) was added, taking care not to tear the membrane with pipette tips.
After incubation, the number of cells that migrated to the lower wells was quantified by removing the Transwell insert and adding 200 μL of CellTiter Glo reagent (CellTiter-Glo Luminescent Cell Viability Assay, Promega, Madison, WI, USA) to each lower well to quantify the amount of adenosine triphosphate (ATP) present, signaling the presence of metabolically active cells. The plate was incubated for 10 minutes in the dark at RT, followed by transferring 150 μL of solution into wells of a white 96-well plate (Lumitrac 200; Greiner Bio-One International GmbH, Kremsmunster, Austria).
(§1) For the chemotaxis and cytotoxicity evaluations, average relative light unit values were calculated from all untreated vehicle samples and, for each sample, percentage of vehicle value was calculated. The tested compound was considered cytotoxic if reduction from untreated vehicle was ≥20%.

[3] = test system: human neutrophils; assay: Cytotoxicity in human neutrophils (CellTiter Glo); assay type: cell-based; settings: for cytotoxic effects: cytotoxic if reduction from vehicle ≥20%
Description: as §1

[4] = test system: human PBMCs; assay: Cytotoxicity in human PBMCs (adenylate kinase release, ToxiLight); assay type: cell-based; settings: for fold-change of adenylate kinase release at test concentration vs vehicle control, Mean ± SEM: human PBMCs, n=2
Description: The effect of t est compounds on cell viabilit y of J 774.2 macrophages and human PBMCs […]
was determined b y comp aring th e aden yl ate kinas e signal obtain ed in the p resence of diff er ent concentrations of compounds with those obtained in DMSO (vehicle) control. Signals were […]
divided,and the results were ex pressed as fold-change versus v ehicle con trol .

[5] = cited from earlier work
[6] = epithelial lining fluid (ELF), ELF

SMILES: CC[C@H]1OC(=O)[C@H](C)[C@@H](O[C@H]2C[C@@](C)(OC)[C@@H](O)[C@H](C)O2)[C@H](C)[C@@H](O[C@@H]2O[C@H](C)C[C@H](N(C)C)[C@H]2O)[C@](C)(O)C[C@@H](C)CN(C)[C@H](C)[C@@H](O)[C@]1(C)O [Azithromycin]
- AUC0-24h/Dose, mean ([1]; ELF): 0.76 (μg∙h/mL)/(mg/kg)
- Kp [1]: ~2
- Tmax [1, 6]: 15 min
- AUC(0-t) [1, 6]: 26700 ± 5780 ng·h/mL
- Cmax [1, 6]: 2350 ± 1450 ng/mL
- Tmax ([1]; plasma): 4.8 min
- AUC(0-t) ([1]; plasma): 11600 ± 1370 ng·h/mL
- Cmax ([1]; plasma): 2330 ± 830 ng/mL
- distribution from plasma to ELF (penetration into the lung compartment) [1]: rapid penetration
- AUC0-24h/Dose, mean ([1]; plasma): 0.33 (μg∙h/mL)/(mg/kg)
- IL-8–induced chemotaxis of human neutrophils [2]: no effect
- Neutrophilic chemotaxis, RLU, Mean ([2]; 0.03 µM): 121773 RLU
- Neutrophilic chemotaxis: % reduction ([2]; 0.03 µM): 10%
- Neutrophilic chemotaxis, RLU, single replicates ([2]; 0.03 µM, listed as Azi): 113920 RLU and 126240 RLU
- Neutrophilic chemotaxis, RLU, Mean ([2]; 0.1 µM): 122140 RLU
- Neutrophilic chemotaxis: % reduction ([2]; 0.1 µM): 9%
- Neutrophilic chemotaxis, RLU, single replicates ([2]; 0.1 µM, listed as Azi): 121960 RLU and 122320 RLU
- Neutrophilic chemotaxis, RLU, Mean ([2]; 0.3 µM): 131533 RLU
- Neutrophilic chemotaxis, RLU, single replicates ([2]; 0.3 µM, listed as Azi): 126760 RLU and 132240 RLU and 135600 RLU
- Neutrophilic chemotaxis, RLU, Mean ([2]; 1 µM): 117320 RLU
- Neutrophilic chemotaxis: % reduction ([2]; 1 µM): 13%
- Neutrophilic chemotaxis, RLU, single replicates ([2]; 1 µM, listed as Azi): 120320 RLU and 118720 RLU and 112920 RLU
- Neutrophilic chemotaxis, RLU, Mean ([2]; 3 µM): 121787 RLU
- Neutrophilic chemotaxis: % reduction ([2]; 3 µM): 9.51%
- Neutrophilic chemotaxis, RLU, single replicates ([2]; 3 µM, listed as Azi): 127280 RLU and 119280 RLU and 118800 RLU
- Neutrophilic chemotaxis, RLU, Mean ([2]; 10 µM): 120227 RLU
- Neutrophilic chemotaxis: % reduction ([2]; 10 µM): 11%
- Neutrophilic chemotaxis, RLU, single replicates ([2]; 10 µM, listed as Azi): 119960 RLU and 123240 RLU and 117480 RLU
- Neutrophilic chemotaxis, RLU, Mean ([2]; 30 µM): 136440 RLU
- Neutrophilic chemotaxis: % reduction ([2]; 30 µM): -3%
- Neutrophilic chemotaxis, RLU, single replicates ([2]; 30 µM, listed as Azi): 143280 RLU and 148320 RLU and 117720 RLU
- Neutrophilic chemotaxis, RLU, Mean ([2]; 100 µM): 142040 RLU
- Neutrophilic chemotaxis: % reduction ([2]; 100 µM): -8%
- Neutrophilic chemotaxis, RLU, single replicates ([2]; 100 µM, listed as Azi): 140160 RLU and 151960 RLU and 134000 RLU
- cytotoxic effects ([3]; ≤100 μM): no cytotoxic effects
- cytotoxic effects ([4]; PBMCs, ≤100 μM): no cytotoxic effects
- increase in AUC, first to fifth daily dose ([5]; 500 mg IV daily): 61%
- increase in maximum observed plasma concentration, first to fifth daily dose ([5]; 500 mg IV daily): 8%
- plasma exposure (AUC) ([5]; 500-mg IV 3-hour infusion, healthy volunteers): 5000 ng·h/mL

SMILES: C=C[C@]1(C)C[C@@H](OC(=O)CS[C@@H]2CC[C@@H](N)C[C@H]2O)[C@]2(C)[C@H](C)CC[C@]3(CCC(=O)[C@H]32)[C@@H](C)[C@@H]1O [Lefamulin]
- plasma AUC0-24h in mice compared with exposures in healthy volunteers after a single dose of 150 mg IV ([1]; 35 mg/kg SC in mice, human data ref 29): comparable
- AUC0-24h/Dose, mean ([1]; ELF): 0.36 (μg∙h/mL)/(mg/kg)
- Kp [1]: ~2
- Tmax [1, 6]: 30 min
- AUC(0-t) [1, 6]: 12600 ± 1170 ng·h/mL
- Cmax [1, 6]: 2160 ± 500 ng/mL
- Tmax ([1]; plasma): 30 min
- AUC(0-t) ([1]; plasma): 6250 ± 930 ng·h/mL
- Cmax ([1]; plasma): 1330 ± 180 ng/mL
- distribution from plasma to ELF (penetration into the lung compartment) [1]: rapid penetration
- AUC0-24h/Dose, mean ([1]; plasma): 0.18 (μg∙h/mL)/(mg/kg)
- IL-8–induced chemotaxis of human neutrophils [2]: no effect
- Neutrophilic chemotaxis, RLU, Mean ([2]; 0.03 µM): 133060 RLU
- Neutrophilic chemotaxis: % reduction ([2]; 0.03 µM): -0.0452%
- Neutrophilic chemotaxis, RLU, single replicates ([2]; 0.03 µM, listed as Lef): 133000 RLU and 133120 RLU
- Neutrophilic chemotaxis, RLU, Mean ([2]; 0.1 µM): 130347 RLU
- Neutrophilic chemotaxis: % reduction ([2]; 0.1 µM): 2.26%
- Neutrophilic chemotaxis, RLU, single replicates ([2]; 0.1 µM, listed as Lef): 131200 RLU and 127720 RLU and 132120 RLU
- Neutrophilic chemotaxis, RLU, Mean ([2]; 0.3 µM): 132827 RLU
- Neutrophilic chemotaxis: % reduction ([2]; 0.3 µM): 0.153%
- Neutrophilic chemotaxis, RLU, single replicates ([2]; 0.3 µM, listed as Lef): 128480 RLU and 128040 RLU and 141960 RLU
- Neutrophilic chemotaxis, RLU, Mean ([2]; 1 µM): 128693 RLU
- Neutrophilic chemotaxis: % reduction ([2]; 1 µM): 3.66%
- Neutrophilic chemotaxis, RLU, single replicates ([2]; 1 µM, listed as Lef): 129760 RLU and 127360 RLU and 128960 RLU
- Neutrophilic chemotaxis, RLU, Mean ([2]; 3 µM): 129147 RLU
- Neutrophilic chemotaxis: % reduction ([2]; 3 µM): 3.27%
- Neutrophilic chemotaxis, RLU, single replicates ([2]; 3 µM, listed as Lef): 127920 RLU and 125520 RLU and 134000 RLU
- Neutrophilic chemotaxis, RLU, Mean ([2]; 10 µM): 129213 RLU
- Neutrophilic chemotaxis: % reduction ([2]; 10 µM): 3.22%
- Neutrophilic chemotaxis, RLU, single replicates ([2]; 10 µM, listed as Lef): 122760 RLU and 130480 RLU and 134400 RLU
- Neutrophilic chemotaxis, RLU, Mean ([2]; 30 µM): 118747 RLU
- Neutrophilic chemotaxis: % reduction ([2]; 30 µM): 12%
- Neutrophilic chemotaxis, RLU, single replicates ([2]; 30 µM, listed as Lef): 115000 RLU and 125400 RLU and 115840 RLU
- Neutrophilic chemotaxis, RLU, Mean ([2]; 100 µM): 73307 RLU
- Neutrophilic chemotaxis: % reduction ([2]; 100 µM): 51%
- Neutrophilic chemotaxis, RLU, single replicates ([2]; 100 µM, listed as Lef): 81720 RLU and 76640 RLU and 61560 RLU
- % viability at test concentration vs vehicle control, Mean ± SEM ([3]; 0.03 µM, n=3, percentage of RLU): 105 ± 1.36%
- % viability at test concentration vs vehicle control, Mean ± SEM ([3]; 0.1 µM, n=3): 106 ± 1.34%
- % viability at test concentration vs vehicle control, Mean ± SEM ([3]; 0.3 µM, n=3): 105 ± 2.39%
- % viability at test concentration vs vehicle control, Mean ± SEM ([3]; 1 µM, n=3): 103 ± 4.22%
- % viability at test concentration vs vehicle control, Mean ± SEM ([3]; 3 µM, n=3): 103 ± 3.07%
- % viability at test concentration vs vehicle control, Mean ± SEM ([3]; 10 µM, n=3): 102 ± 2.98%
- cytotoxic effects ([3]; 30 μM): no cytotoxic effects
- % viability at test concentration vs vehicle control, Mean ± SEM ([3]; 30 µM, n=3): 101 ± 2.58%
- % viability at test concentration vs vehicle control, Mean ± SEM ([3]; 100 µM, n=3): 86 ± 2.99%
- % viability at test concentration vs vehicle control, Mean ± SEM ([3]; 100 µM, n=3, listed as lefamulin): 86%
- cell viability ([4]; PBMCs, 100 μM): reduced
- fold-change of adenylate kinase release at test concentration vs vehicle control, Mean ± SEM ([4]; 0.03 µM): 1.07 ± 0.03 fold-change
- fold-change of adenylate kinase release at test concentration vs vehicle control, Mean ± SEM ([4]; 0.1 µM): 1.04 ± 0.01 fold-change
- fold-change of adenylate kinase release at test concentration vs vehicle control, Mean ± SEM ([4]; 0.3 µM): 1.03 ± 0.02 fold-change
- fold-change of adenylate kinase release at test concentration vs vehicle control, Mean ± SEM ([4]; 1 µM): 1.00 ± 0.01 fold-change
- fold-change of adenylate kinase release at test concentration vs vehicle control, Mean ± SEM ([4]; 3 µM): 0.95 ± 0.01 fold-change
- fold-change of adenylate kinase release at test concentration vs vehicle control, Mean ± SEM ([4]; 10 µM): 0.93 ± 0.01 fold-change
- fold-change of adenylate kinase release at test concentration vs vehicle control, Mean ± SEM ([4]; 30 µM): 0.92 ± 0.03 fold-change
- fold-change of adenylate kinase release at test concentration vs vehicle control, Mean ± SEM ([4]; 100 µM): 1.20 ± 0.03 fold-change
